The text below walks through data of ChEMBL document CHEMBL5500404, “Discovery and Development of NLRP3 Inhibitors Targeting the LRR Domain to Disrupt NLRP3-NEK7 Interaction for the Treatment of Rheumatoid Arthritis” (J Med Chem, 2024).

The test system of series [1] is Rattus norvegicus. The series can be described thus: Anti-inflammatory activity against complete Freund's adjuvant (CFA)-induced arthritis rat model assessed as recovery in degree of swelling in right hind paw at 20 to 80 mg/kg, ip treated after 17 days of CFA challenge measured after 18 days (day 17 to 34) relative to control. The class given is functional, organism-based. To be noted: dose 20-80 mg/kg, time 18.0 day.

For series [2], the system named is THP-M. As to the kind of experiment: Reduction of reactive oxygen species production in human THP-M cells pretreated for 24 hrs followed by stimulated with LPS for 3 hrs and ATP for 1 hr by Mitochondrial damage experiment. The class given is functional, cell-based. Particulars: time 28.0 hrs.
In series [3] the test system is Rattus norvegicus. As to the kind of experiment: Anti-inflammatory activity against complete Freund's adjuvant (CFA)-induced arthritis rat model assessed as recovery in degree of swelling in left hind paw at 20 to 80 mg/kg, ip treated after 17 days of CFA challenge measured after 18 days (day 17 to 34) relative to control. The class given is functional, organism-based. Particulars: dose 20-80 mg/kg, time 18.0 day.

For series [4], the system named is Rattus norvegicus. The series can be described thus: Anti-inflammatory activity against complete Freund's adjuvant (CFA)-induced arthritis rat model assessed as reduction in NLRP3 in rat synovium from the left rear ankle at 20 to 80 mg/kg, ip treated after 17 days of CFA challenge measured after 18 days (day 17 to 34) by immunohistochemistry based assay relative to model group. The class given is functional, organism-based. To be noted: dose 20-80 mg/kg, time 18.0 day.

The target in series [5] is T1, Interferon-inducible protein AIM2 (Homo sapiens) (UniProt O14862).
T1 sequence (whole entry): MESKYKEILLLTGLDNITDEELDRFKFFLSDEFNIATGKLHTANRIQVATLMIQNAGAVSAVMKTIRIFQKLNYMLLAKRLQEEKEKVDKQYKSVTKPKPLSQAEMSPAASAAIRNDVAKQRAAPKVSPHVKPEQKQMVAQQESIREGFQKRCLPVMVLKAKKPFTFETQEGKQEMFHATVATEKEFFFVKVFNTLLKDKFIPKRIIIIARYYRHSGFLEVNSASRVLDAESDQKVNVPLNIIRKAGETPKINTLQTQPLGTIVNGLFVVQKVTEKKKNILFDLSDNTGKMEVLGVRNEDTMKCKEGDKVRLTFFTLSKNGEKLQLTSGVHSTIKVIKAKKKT
As to the kind of experiment: Inhibition of AIM2 inflammasome in poly(DA:DT)-induced human THP-M cells assessed as inhibition of IL-1beta level at 20 to 60 uM pretreated for 24 hrs followed by stimulated with LPS by ELISA. Particulars: dose 20-60 µM. It counts as cell-based. For orientation: In an ELISA, binding on a coated surface is turned into a signal by an enzyme label.

The nature of series [6]: AUC (0 to t) in Sprague-Dawley rat at 20 mg/kg, IG measured upto 1440 mins by LC-MS/MS analysis. It counts as ADME, organism-based. Particulars: in vivo, po.
Series [7] is described as follows: Cmax in Sprague-Dawley rat at 20 mg/kg, IG measured upto 1440 mins by LC-MS/MS analysis. It counts as ADME, organism-based. Particulars: in vivo, po.
Series [8] relates to Rattus norvegicus. The series can be described thus: Anti-inflammatory activity against complete Freund's adjuvant (CFA)-induced arthritis rat model assessed as decrease in thymus size at 20 to 80 mg/kg, ip treated after 17 days of CFA challenge measured after 18 days (day 17 to 34) relative to model group. The class given is functional, organism-based. To be noted: dose 20-80 mg/kg, time 18.0 day.

Series [9] is described as follows: AUC (0 to infinity) in Sprague-Dawley rat at 20 mg/kg, IG measured upto 1440 mins by LC-MS/MS analysis. Particulars: in vivo, po. It counts as ADME, organism-based.
The nature of series [10]: MRT (0 to t) in Sprague-Dawley rat at 20 mg/kg, IG measured upto 1440 mins by LC-MS/MS analysis. It counts as ADME, organism-based. Particulars: in vivo, po.
The subject of series [11] is Rattus norvegicus. As to the kind of experiment: Anti-inflammatory activity against complete Freund's adjuvant (CFA)-induced arthritis rat model assessed as reduction in NLRP3 in rat synovium from the left rear ankle at 20 to 80 mg/kg, ip treated after 17 days of CFA challenge measured after 18 days (day 17 to 34) by immunofluorescence based assay relative to model group. The class given is functional, organism-based. To be noted: dose 20-80 mg/kg, time 18.0 day.

Series [12] concerns Rattus norvegicus. As to the kind of experiment: Anti-inflammatory activity against complete Freund's adjuvant (CFA)-induced arthritis rat model assessed as decrease in spleen size at 20 to 80 mg/kg, ip treated after 17 days of CFA challenge measured after 18 days (day 17 to 34) relative to model group. It counts as functional, organism-based. To be noted: dose 20-80 mg/kg, time 18.0 day.

Series [13] concerns Rattus norvegicus. The series can be described thus: Anti-inflammatory activity against complete Freund's adjuvant (CFA)-induced arthritis rat model assessed as reduction in IL-1beta in rat synovium from the left rear ankle at 20 to 80 mg/kg, ip treated after 17 days of CFA challenge measured after 18 days (day 17 to 34) by immunohistochemistry based assay relative to model group. To be noted: dose 20-80 mg/kg, time 18.0 day. It counts as functional, organism-based.

The subject of series [14] is THP-M. As to the kind of experiment: Induction of mitochondrial membrane potential loss in human THP-M cells pretreated for 24 hrs followed by stimulated with LPS for 3 hrs and ATP for 1 hr by Mitochondrial damage experiment. The class given is functional, cell-based. To be noted: time 28.0 hrs.
Series [15] in a line: Cytotoxicity against human THP-1 cells assessed as cellular proliferation inhibition measured after 48 hrs by MTT assay. The class given is toxicity, cell-based. (In general: Formazan colour is commonly taken as a measure of viable cells.)
A short description of series [16]: MRT (0 to infinity) in Sprague-Dawley rat at 20 mg/kg, IG measured upto 1440 mins by LC-MS/MS analysis. It counts as ADME, organism-based. To be noted: in vivo, po.
Series [17] deals with Rattus norvegicus. The series can be described thus: Anti-inflammatory activity against complete Freund's adjuvant (CFA)-induced arthritis rat model assessed as decrease in spleen index at 20 to 80 mg/kg, ip treated after 17 days of CFA challenge measured after 18 days (day 17 to 34) relative to model group. To be noted: dose 20-80 mg/kg, time 18.0 day. The class given is functional, organism-based.

Series [18] has as its system Rattus norvegicus. As to the kind of experiment: Anti-inflammatory activity against complete Freund's adjuvant (CFA)-induced arthritis rat model assessed as synovial hyperplasia in rat synovium from the left rear ankle at 20 to 80 mg/kg, ip treated after 17 days of CFA challenge measured after 18 days (day 17 to 34) by H and E staining based assay relative to model group. It counts as functional, organism-based. To be noted: dose 20-80 mg/kg, time 18.0 day.

The test system of series [19] is Rattus norvegicus. As to the kind of experiment: Anti-inflammatory activity against complete Freund's adjuvant (CFA)-induced arthritis rat model assessed as decrease in thymus index at 20 to 80 mg/kg, ip treated after 17 days of CFA challenge measured after 18 days (day 17 to 34) relative to model group. It counts as functional, organism-based. Particulars: dose 20-80 mg/kg, time 18.0 day.

Series [20] deals with Rattus norvegicus. As to the kind of experiment: Anti-inflammatory activity against complete Freund's adjuvant (CFA)-induced arthritis rat model assessed as reduction in IL-1beta in rat synovium from the left rear ankle at 20 to 80 mg/kg, ip treated after 17 days of CFA challenge measured after 18 days (day 17 to 34) by immunofluorescence based assay relative to model group. The class given is functional, organism-based. To be noted: dose 20-80 mg/kg, time 18.0 day.

In series [21] the test system is THP-M. As to the kind of experiment: Effect on transcription of NLRP3 in LPS-induced human THP-M cells assessed as NLRP3 mRNA expression at 10 to 50 uM pretreated for 24 hrs followed by stimulated with LPS for 4 hrs by qRT-PCR analysis. Particulars: dose 10-50 µM, time 28.0 hrs. It counts as functional, cell-based. On the technique in general: In qPCR the cycle at which signal appears reflects the starting amount.

Calls of active or inactive are those of the source. No cut-off for these calls is given here.

With `COCCCNC(=O)c1ccc(Cn2c(SCC3CCCCC3)nc3ccncc32)cc1`, the outcome in the series on Rattus norvegicus [1], in the series with Rattus norvegicus [3], in the series with Rattus norvegicus [4], in the series on Rattus norvegicus [8], in the series with Rattus norvegicus [11] and in the series with Rattus norvegicus [12] was Active. For the same molecule, the outcome in the series with Rattus norvegicus [13], in the series with Rattus norvegicus [17], in the series on Rattus norvegicus [18], in the series on Rattus norvegicus [19] and in the series on Rattus norvegicus [20] was Active. Besides, the result with THP-M [2], in the series on THP-M [14] and with THP-M [21] was inactive. For the same molecule, the inhibition result in series [5] was “inactive”. The AUC(0-t) (usually the area under the concentration-time curve up to a stated or last time point) at 24 h in [6] was 837 ng·h/mL. In addition, in series [7], the Cmax (usually the peak of the concentration-time curve) stood at 448 ng/mL. Besides, the AUC(0-inf) (usually the area under the concentration-time curve extrapolated to infinity) in series [9] is 867 ng·h/mL. The MRT last – broadly, a mean duration of stay, worked out from the concentration-time curve – at 24 h in series [10] is 2.31 h. Besides, in series [15], the IC50 (commonly the midpoint of a concentration-inhibition curve) at 48 h was greater than 100 µM. Further, the MRT inf – broadly, a mean duration of stay, worked out from the concentration-time curve – in series [16] was 2.7 h.
